Test results reported in publication doi:10.1101/2025.11.20.689572v1 (biorxiv, 2025).
Read-outs that look alike come from different tables or passages of the source.

What was measured:
M4 = biological target: T1, M4 (Homo sapiens, UniProt P08173); assay: competitive radioligand binding, HEK293 membranes
T1 construct: gene CHRM4; full-length receptor; HEK293 with TRUPATH sensors (function)
T1 sequence (P08173 1-479): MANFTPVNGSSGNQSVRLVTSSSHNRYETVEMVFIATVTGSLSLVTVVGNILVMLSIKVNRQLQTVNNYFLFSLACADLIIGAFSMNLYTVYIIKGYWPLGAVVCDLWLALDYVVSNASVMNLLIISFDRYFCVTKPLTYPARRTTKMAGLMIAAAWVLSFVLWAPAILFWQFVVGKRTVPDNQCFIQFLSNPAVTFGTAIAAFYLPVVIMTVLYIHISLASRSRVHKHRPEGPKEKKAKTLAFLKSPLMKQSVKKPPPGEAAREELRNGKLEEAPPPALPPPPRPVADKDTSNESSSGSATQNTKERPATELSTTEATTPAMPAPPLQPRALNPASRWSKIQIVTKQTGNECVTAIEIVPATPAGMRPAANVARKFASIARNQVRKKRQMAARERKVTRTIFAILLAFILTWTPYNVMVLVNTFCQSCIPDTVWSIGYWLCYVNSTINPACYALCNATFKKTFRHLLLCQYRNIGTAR

M2 = biological target: T2, M2 (Homo sapiens, UniProt P08172); assay: TRUPATH BRET2 G protein dissociation, HEK293; format: cell-based; conditions: HBSS, […] HEPES pH […] °C; agonist mode
T2 construct: gene CHRM2; full-length receptor; HEK293 with TRUPATH sensors (function)
T2 sequence (P08172 1-466): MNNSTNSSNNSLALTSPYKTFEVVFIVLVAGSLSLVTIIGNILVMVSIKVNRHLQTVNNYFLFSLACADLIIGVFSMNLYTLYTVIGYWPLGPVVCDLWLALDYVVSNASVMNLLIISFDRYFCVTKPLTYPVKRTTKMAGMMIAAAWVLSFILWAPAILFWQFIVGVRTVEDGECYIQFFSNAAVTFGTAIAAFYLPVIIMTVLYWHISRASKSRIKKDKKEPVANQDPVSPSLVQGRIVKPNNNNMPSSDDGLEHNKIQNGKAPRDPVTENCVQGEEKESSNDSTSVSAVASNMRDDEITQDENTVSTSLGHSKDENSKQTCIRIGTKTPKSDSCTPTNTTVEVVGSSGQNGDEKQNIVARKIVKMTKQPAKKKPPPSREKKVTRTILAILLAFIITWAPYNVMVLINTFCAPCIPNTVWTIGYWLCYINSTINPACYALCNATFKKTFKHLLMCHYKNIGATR

α2B = biological target: T3, α2B (Homo sapiens, UniProt P18089); assay: competitive radioligand binding, HEK293 membranes
T3 construct: gene ADRA2B; full-length receptor; HEK293 cell membranes
Text: competitive radioligand binding, HEK293 membranes on α2B

D3 = biological target: T4, D3 (Homo sapiens, UniProt P35462); assay: competitive radioligand binding, HEK293 membranes
T4 construct: gene DRD3; full-length receptor; HEK293 cell membranes
Text: competitive radioligand binding, HEK293 membranes on D3

DRD4 = biological target: T5, DRD4 (Homo sapiens, UniProt P21917); assay: biochemical; parameters: species or system HEK293; PDSP competitive radioligand binding, membranes of transfected HEK293 cells, filtration, Ki by Cheng-Prusoff
T5 sequence (P21917 1-419): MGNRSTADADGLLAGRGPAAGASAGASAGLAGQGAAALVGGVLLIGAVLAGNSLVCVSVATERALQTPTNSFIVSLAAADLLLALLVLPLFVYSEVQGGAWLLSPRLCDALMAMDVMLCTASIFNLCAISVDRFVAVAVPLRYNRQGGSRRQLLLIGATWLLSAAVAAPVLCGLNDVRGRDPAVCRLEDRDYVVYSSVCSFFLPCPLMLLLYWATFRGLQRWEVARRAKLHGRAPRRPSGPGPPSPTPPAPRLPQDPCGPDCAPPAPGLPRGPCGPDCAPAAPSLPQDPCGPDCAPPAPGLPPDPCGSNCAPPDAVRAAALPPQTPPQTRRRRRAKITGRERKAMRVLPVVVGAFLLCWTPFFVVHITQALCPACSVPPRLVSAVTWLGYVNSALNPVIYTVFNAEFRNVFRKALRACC
Description: (§1) Competitive radioligand binding assays were performed at the NIMH Psychoactive Drug Screening Program (PDSP) using membranes from transiently transfected HEK293 cells in 96-well format as described. Complete, target-specific protocols are available at the PDSP website (https://pdsp.unc.edu/pdspweb/?site=assays). Primary screenings were run at a single test concentration (10 µM) in quadruplicate. […] Secondary assays were conducted in triplicate using 12-point serial dilutions (0, 0.1, 0.3, 1, 3, 10, 30, 100, 300 nM; 1, 3, 10 µM). Assays were performed in a final volume of 125 µL per well in binding buffer, as detailed in the NIMH PDSP protocols (e.g., standard binding buffer: 50 mM Tris-HCl, pH 7.4, 10 mM MgCl2, 0.1 mM EDTA). Radioligand concentrations were chosen near the target-specific Kd. Total and nonspecific binding were defined in the absence and presence, respectively, of 10 µM reference ligand specific for each receptor. After 90 min incubation at room temperature, reactions were terminated by vacuum filtration onto 0.3% polyethyleneimine-pretreated UniFilter-96 GF/C Microplates using a FilterMate harvester, washed three times with ice-cold buffer (50 mM Tris HCl, pH 7.4), dried, treated with MicroScint-O [compound left out] scintillation cocktails, and counted on a MicroBeta counter. Equilibrium inhibition constants (Ki) were calculated from fitted IC50 values using the Cheng–Prusoff equation [14] with the assay-specific radioligand concentration and Kd. TABLE 1. […] Results represented mean ± SEM from a minimum of 3 independent assays, each in triplicate. ND=not determined.

SERT = biological target: T6, SERT (Homo sapiens, UniProt P31645); assay: biochemical; parameters: species or system HEK293; PDSP competitive radioligand binding, membranes of transfected HEK293 cells, filtration, Ki by Cheng-Prusoff
T6 construct: gene SLC6A4
Description: as §1

CHRM3 = CHRM3 (Homo sapiens, UniProt P20309); assay: cell-based
β2 = β2 (Homo sapiens, UniProt P07550); assay: biochemical; parameters: gene ADRB2; species or system HEK293; PDSP competitive radioligand binding, membranes of transfected HEK293 cells, filtration, Ki by Cheng-Prusoff
Description: Competitive radioligand binding assays were performed at the NIMH Psychoactive Drug Screening Program (PDSP) using membranes from transiently transfected HEK293 cells in 96-well format as described. Complete, target-specific protocols are available at the PDSP website (https://pdsp.unc.edu/pdspweb/?site=assays). Primary screenings were run at a single test concentration (10 µM) in quadruplicate. […] Secondary assays were conducted in triplicate using 12-point serial dilutions (0, 0.1, 0.3, 1, 3, 10, 30, 100, 300 nM; 1, 3, 10 µM). Assays were performed in a final volume of 125 µL per well in binding buffer, as detailed in the NIMH PDSP protocols (e.g., standard binding buffer: 50 mM Tris-HCl, pH 7.4, 10 mM MgCl2, 0.1 mM EDTA). Radioligand concentrations were chosen near the target-specific Kd. […] After 90 min incubation at room temperature, reactions were terminated by vacuum filtration onto 0.3% polyethyleneimine-pretreated UniFilter-96 GF/C Microplates using a FilterMate harvester, washed three times with ice-cold buffer (50 mM Tris HCl, pH 7.4), dried, treated with MicroScint-O [compound left out] scintillation cocktails, and counted on a MicroBeta counter. Equilibrium inhibition constants (Ki) were calculated from fitted IC50 values using the Cheng–Prusoff equation [14] with the assay-specific radioligand concentration and Kd. […] ND=not determined.

[1] = read-out: N-desmethyl-xanomeline (PDSP) pKi (converted)

T3 sequence (P18089 whole entry): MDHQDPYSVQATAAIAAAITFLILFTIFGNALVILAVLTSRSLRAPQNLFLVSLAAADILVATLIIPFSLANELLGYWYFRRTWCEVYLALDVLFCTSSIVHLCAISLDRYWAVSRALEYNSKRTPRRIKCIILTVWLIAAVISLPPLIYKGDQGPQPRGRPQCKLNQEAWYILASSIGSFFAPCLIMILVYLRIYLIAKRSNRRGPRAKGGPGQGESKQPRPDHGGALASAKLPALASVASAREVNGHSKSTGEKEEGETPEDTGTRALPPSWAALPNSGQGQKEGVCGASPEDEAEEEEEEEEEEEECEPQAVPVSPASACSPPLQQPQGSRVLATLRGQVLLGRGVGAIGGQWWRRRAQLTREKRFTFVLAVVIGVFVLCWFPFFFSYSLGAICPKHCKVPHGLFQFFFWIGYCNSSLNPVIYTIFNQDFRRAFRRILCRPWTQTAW
T6 sequence (P31645 whole entry): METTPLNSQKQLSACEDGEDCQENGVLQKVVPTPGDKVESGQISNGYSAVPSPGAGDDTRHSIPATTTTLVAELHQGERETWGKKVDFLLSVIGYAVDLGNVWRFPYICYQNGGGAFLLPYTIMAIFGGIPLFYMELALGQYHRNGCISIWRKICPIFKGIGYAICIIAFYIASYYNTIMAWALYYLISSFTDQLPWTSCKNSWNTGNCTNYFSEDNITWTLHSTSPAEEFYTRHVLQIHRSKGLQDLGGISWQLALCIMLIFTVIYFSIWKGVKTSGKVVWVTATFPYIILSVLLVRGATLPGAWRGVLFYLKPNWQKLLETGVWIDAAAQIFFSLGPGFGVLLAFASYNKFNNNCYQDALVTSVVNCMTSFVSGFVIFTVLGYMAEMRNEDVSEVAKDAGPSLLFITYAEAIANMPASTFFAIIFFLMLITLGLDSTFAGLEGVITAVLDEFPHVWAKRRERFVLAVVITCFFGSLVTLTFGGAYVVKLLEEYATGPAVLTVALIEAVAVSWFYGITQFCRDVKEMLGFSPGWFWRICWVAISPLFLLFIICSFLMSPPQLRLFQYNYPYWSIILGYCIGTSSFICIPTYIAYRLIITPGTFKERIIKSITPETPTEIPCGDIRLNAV
T4 sequence (P35462 whole entry): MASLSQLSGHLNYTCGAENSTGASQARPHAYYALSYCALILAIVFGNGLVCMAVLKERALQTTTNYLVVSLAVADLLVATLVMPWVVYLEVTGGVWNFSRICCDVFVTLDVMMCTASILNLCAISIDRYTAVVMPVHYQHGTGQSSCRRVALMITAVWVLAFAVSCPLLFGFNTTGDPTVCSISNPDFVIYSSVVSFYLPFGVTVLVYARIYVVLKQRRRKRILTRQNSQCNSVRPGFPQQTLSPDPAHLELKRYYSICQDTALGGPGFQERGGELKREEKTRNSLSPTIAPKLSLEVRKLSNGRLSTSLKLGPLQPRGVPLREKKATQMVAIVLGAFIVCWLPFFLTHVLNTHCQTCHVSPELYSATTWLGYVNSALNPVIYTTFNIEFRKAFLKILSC
β2, sequence (P07550 whole entry): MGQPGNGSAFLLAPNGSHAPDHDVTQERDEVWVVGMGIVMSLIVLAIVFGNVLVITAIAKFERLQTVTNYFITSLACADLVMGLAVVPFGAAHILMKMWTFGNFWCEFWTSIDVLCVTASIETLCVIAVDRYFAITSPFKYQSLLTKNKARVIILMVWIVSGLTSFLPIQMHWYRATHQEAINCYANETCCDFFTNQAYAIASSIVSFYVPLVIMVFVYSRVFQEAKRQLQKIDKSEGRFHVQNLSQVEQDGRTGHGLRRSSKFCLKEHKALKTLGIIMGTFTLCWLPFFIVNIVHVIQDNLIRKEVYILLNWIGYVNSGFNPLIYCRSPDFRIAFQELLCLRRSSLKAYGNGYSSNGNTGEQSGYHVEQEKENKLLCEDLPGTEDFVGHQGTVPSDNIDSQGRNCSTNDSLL
CHRM3, sequence (P20309 whole entry): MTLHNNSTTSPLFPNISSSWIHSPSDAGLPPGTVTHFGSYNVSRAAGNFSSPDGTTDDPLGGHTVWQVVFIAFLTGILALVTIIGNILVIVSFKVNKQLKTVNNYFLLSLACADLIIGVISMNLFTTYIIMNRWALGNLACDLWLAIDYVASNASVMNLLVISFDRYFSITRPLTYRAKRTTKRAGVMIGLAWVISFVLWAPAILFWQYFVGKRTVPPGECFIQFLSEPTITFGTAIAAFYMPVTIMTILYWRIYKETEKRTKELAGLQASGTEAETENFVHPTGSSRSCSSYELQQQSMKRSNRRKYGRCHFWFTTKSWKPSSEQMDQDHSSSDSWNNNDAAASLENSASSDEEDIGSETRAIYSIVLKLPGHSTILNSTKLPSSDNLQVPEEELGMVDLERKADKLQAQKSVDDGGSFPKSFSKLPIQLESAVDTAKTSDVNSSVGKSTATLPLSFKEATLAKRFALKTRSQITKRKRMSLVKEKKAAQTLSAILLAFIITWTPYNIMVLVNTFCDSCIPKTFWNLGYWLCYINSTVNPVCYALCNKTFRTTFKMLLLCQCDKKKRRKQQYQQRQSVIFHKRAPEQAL

Row | Structure (SMILES) | Ki (M4) [µM] | EC50 (M2) | Ki (α2B) [µM] | Ki (D3) [µM] | Ki (DRD4; [1]) [µM] | Ki (SERT; [1]) [µM] | EC50 (CHRM3) [µM] | Ki (DRD4) [µM] | Ki (SERT) [µM] | Ki (β2) [µM]
1 | CCCCCCOc1nsnc1C1=CCCNC1 [N-desmethylxanomeline] | 0.117 | differential activation of M1-M5 muscarinic receptor transducers | 0.339 | 0.646 | > 10 | 1.62 | 0.38 | – | – | –
2 | CCCCCCOc1nsnc1C1=CCCN(C)C1 [Xanomeline] | – | differential activation of M1-M5 muscarinic receptor transducers | 0.316 | 0.251 | – | – | – | 2 | > 10 | > 10
